The text below walks through data of PMC8620390, “New Multi-Targeted Antiproliferative Agents: Design and Synthesis of IC261-Based Oxindoles as Potential Tubulin, CK1 and EGFR Inhibitors” (Pharmaceuticals, 2021).

“And” between values parts separate entries of the source, which are not always exact repeats. Equal values may be shown once. Read-outs that look alike come from different tables or passages of the source. Marks after values point to notes of the source that are not given here.

Usually inhibition stands for the share of the control response that was lost under treatment. For orientation: IC50 means the concentration at which inhibition is half-maximal.

The target of one data set is CK1. Put plainly: Casein Kinase 1 (CK1) 33P-ATP assay. In kind it is biochemical. As to the method:
The active CK1, kinase assay buffer, substrate solution and kinase dilution buffer were thawed on ice (^33P-ATP assay Cocktail). In a precooled microcentrifuge tube, 10 μL of kinase solution, 5 μL of substrate solution and 5 μL of cold water (4 °C) were added, then a blank control was set up. Each reaction was initiated by adding 5 μL of ^33P-ATP assay cocktail then incubated for 15 min in a water bath (30 °C), then 20 μL of the reaction mixture were spotted onto an individually precut strip of phosphocellulose P81 paper and allowed to air dry followed by washing using 1% H2SO4 with constant gentle stirring. A radioactive control was set up then 5 μL of γ-^33P-ATP assay cocktail was spotted on P81 paper, the sample was allowed to air dry for 2 min then the radioactivity count was recorded.

In a further data set the test system is MCF-7. Description: Two-dose antiproliferative screening, SRB assay, MCF-7. In kind it is cell-based. Conditions: triplicates; for Growth Inhibition (%) MCF-7 1 μM Average: 72 h; for inhibition at 1 µM / inhibition at 10 µM: Homo sapiens, MCF7, 72 h; for inhibition at 1 µM: read-out: Growth Inhibition (%) MCF-7 1 μM Average; for inhibition at 10 µM: read-out: Growth Inhibition (%) MCF-7 10 μM Average. On the technique in general: The SRB assay estimates cell density from bound dye.

In the next data set the target is T1, EGFR (Homo sapiens, UniProt P00533).
T1 construct: enough purified recombinant EGFR enzyme, EGFR substrate, ATP, and kinase assay buffer; purchased Sigma Aldrich
Put plainly: EGFR kinase assay kit (Kinase-Glo MAX). In kind it is biochemical. To be noted: EGFR-TK kinase kit; read-out: EGFR Inhibition IC50 (converted). On the procedure: The EGFR Kinase Assay Kit (Sigma Aldrich, St. Louis, […], USA) is designed to measure EGFR Kinase activity for screening and profiling applications using Kinase-Glo® MAX as a detection reagent. The EGFR Kinase Assay Kit (Sigma Aldrich, St. Louis, […], USA) comes in a convenient 96-well format, with enough purified recombinant EGFR enzyme, EGFR substrate, ATP, and kinase assay buffer for 100 enzyme reactions. The master mixture (25 μL per well) was prepared out of Kinase assay buffer (6 μL), ATP (500 μM, 1 μL), PTK substrate (50×, 1 μL) and water (17 μL) and added to each well. Inhibitor solution was made by dissolving 4b in a liquid labelled” inhibitor buffer”. An inhibitor solution (5 μL) was then added to each well, labelled as “Test Inhibitor”. For “Positive Control” and “Blank”, add 5 μL inhibitor buffer). EGFR was thawed on ice. Its tube was spun briefly to recover the full content of the tube. The enzyme was diluted with 1× Kinase assay buffer enzyme to 1 ng/μL. The reaction was initiated by adding 20 μL of diluted EGFR enzyme to the wells designated “Positive Control” and “Test Inhibitor Control”. The plate was incubated at 30 °C for 40 min. After the 40-min reaction, the Kinase-Glo Max (50 μL) reagent was added to each well. The plate was covered with aluminum foil, incubated at room temperature for 15 min and the luminescence was measured using the microplate reader.
(Kinase-Glo reads ATP consumption through a luciferase reaction.)

The test system of data set [1] is COLO-205. Put plainly: Annexin V-FITC/PI apoptosis assay. In kind it is cell-based, human. On the procedure: COLO-205 Cells were placed in a 6-well plate at 1 × 10^5 concentration of cells/well then incubated for 24 h. COLO-205 Cells were treated with compound 4b (2.34 μM) for 24 h. The cells were then harvested, washed with PBS and stained with Annexin V-FITC and PI in binding buffer ([…] at pH 7.4) for 15 min at room temperature in the dark then analyzed by the flow cytometer.

The next data set concerns Pgp. Put plainly: Pgp ELISA assay in MCF-7 cells. In kind it is in vitro ADME, human.
The subject of data set [2] is COLO-205. Description: Cell cycle analysis, DNA flow cytometry (PI). In kind it is cell-based, human. On the procedure: COLO-205 Cells were placed in a 6-well plate at 1 × 10^5 concentration of cells/well then incubated for 24 h. COLO-205 Cells were treated with compound 4b (2.34 μM) for 24 h. Cells were then collected and fixed for 12 h using ice cold 70% ethanol at 4 °C. Ethanol was then removed and cells were washed with cold phosphate buffer saline (PBS, 0.5 mL) and incubated for 30 min at 37 °C. The cells were stained for 30 min with propidium iodide in the dark. A flow cytometer was used to detect DNA content.
A general note: A flow cytometer gives signals particle by particle.

In another data set the test system is Bax. Description: Bax expression level in COLO-205 (qRT-PCR). Conditions: COLO-205, 4b 2.34 μM, vs DMSO-treated control. In kind it is cell-based, human. On the procedure: qRT-PCR was used to assess the […] expression of Bax and Bcl-2. The High Pure RNA Isolation Kit (RNeasy extraction kit, up to 1 × 10^7 cells) was used to isolate total RNA from COLO-205 cells according to the manufacturer's instructions. A Transcriptor First Strand c-DNA Synthesis Kit was used to produce c-DNA from RNA according to the manufacturer's instructions; 10 μL total RNA was used for amplification Specific primers for Bax, Bcl-2, and P53 were used in PCR experiments. A LightCycler 480 PCR Master Mix was used to set up amplification reactions with a reaction volume of 20 uL. TaqMan probes and PCR primers were created and tuned. PCR Primer sequences were as following (Bax [NT], Bax [NT]. Bcl-2 [NT], and Bcl-2 […] dissociation assay was performed to evaluate any problem related to primer unspecific annealing or any secondary structure formation. Data were analyzed using SDS analysis software.

Where [3] appears, read: COLO-205, 4b 2.34 μM, 24 h, annexin V-FITC.

T1 sequence (P00533 25-1210): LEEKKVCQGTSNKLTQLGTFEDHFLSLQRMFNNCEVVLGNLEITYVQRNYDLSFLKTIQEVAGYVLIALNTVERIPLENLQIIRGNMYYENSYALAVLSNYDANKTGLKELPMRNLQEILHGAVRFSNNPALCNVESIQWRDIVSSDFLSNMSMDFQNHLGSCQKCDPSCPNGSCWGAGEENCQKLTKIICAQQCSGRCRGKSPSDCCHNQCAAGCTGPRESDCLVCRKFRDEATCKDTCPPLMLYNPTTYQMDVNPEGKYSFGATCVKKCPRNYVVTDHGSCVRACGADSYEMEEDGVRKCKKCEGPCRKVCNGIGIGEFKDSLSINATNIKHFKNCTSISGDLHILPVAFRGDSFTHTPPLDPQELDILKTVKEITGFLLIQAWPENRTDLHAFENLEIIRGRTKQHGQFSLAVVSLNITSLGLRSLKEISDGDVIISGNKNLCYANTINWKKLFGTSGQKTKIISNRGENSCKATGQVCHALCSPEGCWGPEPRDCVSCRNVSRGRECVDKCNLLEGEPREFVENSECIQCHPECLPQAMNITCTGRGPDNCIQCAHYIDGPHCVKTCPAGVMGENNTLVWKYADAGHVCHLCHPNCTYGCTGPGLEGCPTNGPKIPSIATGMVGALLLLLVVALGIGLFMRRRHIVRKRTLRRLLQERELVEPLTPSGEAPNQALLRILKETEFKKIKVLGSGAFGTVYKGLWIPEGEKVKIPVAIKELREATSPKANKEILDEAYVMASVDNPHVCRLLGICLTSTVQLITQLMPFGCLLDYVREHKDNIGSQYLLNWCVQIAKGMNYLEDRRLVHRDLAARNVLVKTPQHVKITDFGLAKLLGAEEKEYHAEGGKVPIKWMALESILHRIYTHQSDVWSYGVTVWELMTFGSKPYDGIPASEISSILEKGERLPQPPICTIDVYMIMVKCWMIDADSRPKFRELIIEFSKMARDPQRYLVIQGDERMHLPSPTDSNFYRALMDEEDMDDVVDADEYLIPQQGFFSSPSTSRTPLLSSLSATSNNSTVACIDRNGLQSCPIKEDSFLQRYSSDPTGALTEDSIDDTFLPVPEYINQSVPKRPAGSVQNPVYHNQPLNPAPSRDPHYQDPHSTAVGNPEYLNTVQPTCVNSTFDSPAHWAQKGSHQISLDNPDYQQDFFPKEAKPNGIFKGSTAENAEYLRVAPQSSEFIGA
Description for Pgp: PgP concentration was measured using ELISA kit Cat No: MBS722065) for human PgP assay. The Pgp ELISA kit employs a competitive enzyme immunoassay technique using a polyclonal anti-Pgp antibody and a PgpHRP conjugate. The test sample and buffer were incubated together with the PgpHRP conjugate on a precoated plate for one hour. After the incubation period, the wells were decanted and washed five times. The wells were then incubated with a substrate for the HRP enzyme. The enzyme-substrate reaction product formed a blue complex. Finally, a stop solution was added to stop the reaction, which then turned the solution yellow. Color intensity was measured spectrophotometrically at 450 nm in a microplate reader. The intensity of the color was inversely proportional to the Pgp concentration, since the Pgp of the samples and the PgpHRP conjugate competed for the binding site of the anti-Pgp antibody. Because the number of sites is limited, there were fewer sites left to bind to the PgpHRP conjugate as the sample Pgp occupies more sites. A standard curve was drawn that relates the intensity of the color to the concentration of the standards. The Pgp concentration in each sample was interpolated from this standard curve.

`COc1cc(OC)c(/C=C2/C(=O)Nc3ccccc32)c(OC)c1` [Compound 4a, (E)-3-(2,4,6-trimethoxybenzylidene)indolin-2-one, reference compound]: at CK1, the “CK 1 inhibition IC50 (as printed in μM in discussion)” value came out at 2.39 µM and the “Casein Kinase I Inhibition IC50” value stood at 2.39 µg/mL. Besides, the “Casein Kinase I Inhibition IC50” value at CK1 (IC261) is 2.39 (4a, IC261) μg/mL. For the same molecule, in the data set on MCF-7, the “Growth Inhibition (%) MCF-7 1 μM Average” value is recorded as 43.49 ^c %, the inhibition at 1 µM came out at 44% and the inhibition at 10 µM came to 58.9%. Moreover, the IC50 at EGFR was 321 nM and 340 nM.
Consider `COc1cc(OC)c(/C=C2/C(=O)Nc3cc(Cl)ccc32)c(OC)c1` [Compound 4b, (E)-6-chloro-3-(2,4,6-trimethoxybenzylidene)indolin-2-one], for which, at CK1, the “Casein Kinase I Inhibition IC50” value stood at 1.92 µg/mL. In the data set with COLO-205 [1] (setting [3]), the “Apoptosis Early” value was 2.61%, the “Apoptosis Late” value is listed as 21.31% and the “Apoptosis Total” value is 41.28%. Further, the Necrosis in the data set on COLO-205 [1] (COLO-205, 4b 2.34 μM, 24 h, annexin V-FITC/PI) is recorded as 17.36%. In addition, the “overall effect (cytotoxic vs cytostatic)” value with COLO-205 [1] (COLO-205, annexin V/PI) was “cytotoxic, rather than cytostatic”. For the same molecule, in the data set with COLO-205 [1] (COLO-205, vs DMSO control), the “early and late apoptosis, times compared to the control” value was 27.81 times; the “necrosis, times compared to the control” value came out at 11.05 times. Also, in the data set on MCF-7, the “Growth Inhibition (%) MCF-7 1 μM Average” value is listed as 45.3%, the inhibition at 1 µM came out at 46% and the inhibition at 10 µM came to 59.1%. Besides, the “Pgp occupied by compound” value with Pgp is on record as “around 35%”. Further, in the data set on COLO-205 [2] (COLO-205, 4b 2.34 μM, 24 h), the “DNA content %G0-G1” value is recorded as 47.15%; the “DNA content %G2/M” value is 2.94 * %; the “DNA content %Pre-G1” value was 41.28% and 41.28 * %; the “DNA content %S” value is recorded as 49.91%. For the same molecule, the “increase in cells at pre-G1 phase, fold” value with COLO-205 [2] (COLO-205, vs untreated control) was determined as 16.99 fold. In the data set with Bax, the “Bax expression level, fold change” value is 5.104 fold and 5.10 fold. The IC50 on EGFR was 549 nM.
